The values below are quoted from earlier work in patent US20250049902A1, “Method of Developing a Peptide-Based Vaccine Conjugated with 1V209” (VERSITECH LIMITED, priority 2021, published 2025).

The subject of data set [1] is antigen specific immune responses. Particulars: small molecule simply mixed with antigens, ref [3].
For another data set, the system named is TLR7 pathway. Particulars: reported, ref [3].

In the case of `COCCOc1nc(N)c2[nH]c(=O)n(Cc3ccc(C(=O)O)cc3)c2n1` [1V209, 4-[[6-Amino-7,8-dihydro-2-(2-methoxyethoxy)-8-oxo-9H-purin-9-yl]methyl]-benzoic acid], the “induction of antigen specific immune responses” value in data set [1] is “can hardly induce antigen specific immune responses”. For the same compound, the TLR7 pathway stimulation result in the data set with TLR7 pathway is “can stimulate the TLR7 pathway as an agonist”.
